One test deals with T1, recFlDet (Flavobacterium sp. UMI-01, UniProt A0A6S6B272).
T1 construct: full length 237 residues (25,697 Da), C-terminal His-tag (27,394 Da), E. coli BL21(DE3); native tetra- or pentamer; N-terminus […]
T1 sequence (A0A6S6B272 1-237): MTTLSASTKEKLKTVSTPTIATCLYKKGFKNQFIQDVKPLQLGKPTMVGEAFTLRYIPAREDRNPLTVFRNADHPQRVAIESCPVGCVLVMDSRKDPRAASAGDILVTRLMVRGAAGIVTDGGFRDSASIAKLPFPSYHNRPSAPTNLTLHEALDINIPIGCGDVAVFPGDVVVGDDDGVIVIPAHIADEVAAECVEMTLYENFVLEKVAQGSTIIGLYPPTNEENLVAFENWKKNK
Kind of test: TBA method (decrease at […] nm), TLC, ESI-MS of product. The note with it: […] potassium phosphate pH […] KCl, […] MgCl2, […] °C. Format: biochemical.

For test [1], the target named is T2, recFlDeg (Flavobacterium sp. UMI-01, UniProt A0A6S6ASF6).
T2 construct: full length, His-tag, E. coli BL21(DE3); calculated mass 57,142 Da; Glu251 and Cys288 conserved
T2 sequence (A0A6S6ASF6 1-515): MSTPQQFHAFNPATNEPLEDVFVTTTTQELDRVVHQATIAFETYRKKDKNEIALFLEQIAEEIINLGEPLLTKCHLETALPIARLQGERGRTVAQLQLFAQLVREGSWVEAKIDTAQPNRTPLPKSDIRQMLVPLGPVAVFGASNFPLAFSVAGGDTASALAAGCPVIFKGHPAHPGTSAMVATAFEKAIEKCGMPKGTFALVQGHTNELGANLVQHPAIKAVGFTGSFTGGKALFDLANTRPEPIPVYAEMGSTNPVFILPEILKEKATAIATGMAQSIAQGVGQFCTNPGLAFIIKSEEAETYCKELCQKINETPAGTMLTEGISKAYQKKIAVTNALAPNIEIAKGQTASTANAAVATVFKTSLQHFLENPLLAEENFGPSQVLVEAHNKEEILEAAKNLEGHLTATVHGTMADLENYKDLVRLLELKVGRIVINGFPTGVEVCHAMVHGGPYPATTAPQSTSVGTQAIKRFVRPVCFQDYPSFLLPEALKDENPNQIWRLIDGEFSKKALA
The test is described as follows: NADH formation at […] nm. Format: biochemical. To be noted: […] alpha-KGSA, […] potassium phosphate pH […] KCl, […] MgCl2, […] °C.

Test [2] deals with T3, recFlRed.
T3 construct: gene FlRed; native 27 kDa on SDS-PAGE, about 102 kDa on gel filtration, tetramer
Kind of test: NADH formation by absorbance at […] nm, Michaelis-Menten fit. The format is biochemical, Flavobacterium sp. UMI-01. The note with it: oxidase direction; 5 mM DEHU, 0.15 M KCl, 10 mM sodium phosphate pH 7.4, 20 °C.

The test system of test [3] is T3, recFlRed. Kind of test: coenzyme consumption by absorbance at […] nm, Michaelis-Menten fit. The note with it: reductase direction; 5 mM DEHU, 0.15 M KCl, 10 mM sodium phosphate pH 7.4, 20 °C. The format is biochemical, Flavobacterium sp. UMI-01.
For test [4], the system named is T3, recFlRed. Kind of test: NADH consumption by absorbance at […] nm, Michaelis-Menten fit. Format: biochemical, Flavobacterium sp. UMI-01. The note with it: reductase direction; 0.2 mM NADH, 0.15 M KCl, 10 mM sodium phosphate pH 7.4, 20 °C.
The target of test [5] is T2, recFlDeg. Kind of test: NADH formation at […] nm; TLC, ESI-MS and NMR of product. To be noted: NAD+, […] potassium phosphate pH […] KCl, […] MgCl2, […] °C. The format is biochemical.
The subject of test [6] is T3, recFlRed. The test is described as follows: NADPH formation by absorbance at […] nm, Michaelis-Menten fit. To be noted: oxidase direction; 5 mM DEHU, 0.15 M KCl, 10 mM sodium phosphate pH 7.4, 20 °C. Format: biochemical, Flavobacterium sp. UMI-01.

Each structure is given as a SMILES string.

As for `O=C(O)C(=O)C[C@H](O)[C@H](O)C(=O)O` [KDGR], the “TBA method (decrease at 548 nm), TLC, ESI-MS of product” value on recFlDet is on record as “KDGR was determined to be the sole α-keto acid recognized by recFlDet”.
In the case of `NC(=O)c1ccc[n+]([C@@H]2O[C@H](COP(=O)(O)OP(=O)(O)OC[C@H]3O[C@@H](n4cnc5c(N)ncnc54)[C@H](O)[C@@H]3O)[C@@H](O)[C@H]2O)c1` [NAD^+], the “NADH formation at 340 nm” value at recFlDeg [1] is recorded as “recFlDeg preferred NAD^+ to NADP^+”. Moreover, in the test with recFlRed [2], the Km is 98 ± 10 µM.
`NC(=O)C1=CN([C@@H]2O[C@H](COP(=O)(O)OP(=O)(O)OC[C@H]3O[C@@H](n4cnc5c(N)ncnc54)[C@H](O)[C@@H]3O)[C@@H](O)[C@H]2O)C=CC1` [NADH]: the Km with recFlRed [3] amounted to 37 ± 2 µM.
Turning to `NC(=O)C1=CN([C@@H]2O[C@H](COP(=O)(O)OP(=O)(O)OC[C@H]3O[C@@H](n4cnc5c(N)ncnc54)[C@H](OP(=O)(O)O)[C@@H]3O)[C@@H](O)[C@H]2O)C=CC1` [NADPH], the Km in the test on recFlRed [3] stood at 980 ± 100 µM.
As for `O=C[C@@H](O)[C@@H](O)CC(=O)C(=O)O` [DEHU], the Km with recFlRed [4] came to 2600 ± 100 µM.
On to `O=CCCC(=O)C(=O)O` [α-KGSA], for which the “NADH formation at 340 nm; TLC, ESI-MS and NMR of product” value on recFlDeg [5] was “FlDeg is the enzyme catalyzing the oxidation of the aldehyde group of α-KGSA”.
Consider `NC(=O)c1ccc[n+]([C@@H]2O[C@H](COP(=O)(O)OP(=O)(O)OC[C@H]3O[C@@H](n4cnc5c(N)ncnc54)[C@H](OP(=O)(O)O)[C@@H]3O)[C@@H](O)[C@H]2O)c1` [NADP^+], for which the Km in the test with recFlRed [6] turned out to be 1400 ± 200 µM.

As usually defined, the Km is the substrate concentration at which the rate is half of its maximum.

The values are drawn from PMC8563752, “An oxidative metabolic pathway of 4-deoxy-L-erythro-5-hexoseulose uronic acid (DEHU) from alginate in an alginate-assimilating bacterium” (Communications Biology, 2021).
